Legend:
[1] = test system: phospho-p90RSK in A375 cell line; test: A375 Phospho-p90RSK Cellular Assay; format: cell-based, human; conditions: A375 cells, 2 hours incubation
Method: (§1) All compounds or DMSO (dimethyl sulphoxide) for the ERK2 Mass Spectrometry and A375 phospho-p90RSK assays were dispensed from source plates containing compounds at 10 mM in 100% (v/v) DMSO or 100% DMSO, directly into assay plates using an Echo 555 Acoustic dispenser (Labcyte Inc™). Depending on the assay, two separate plate preparations were followed. In Workflow A, 10 mM compound stocks were diluted 1:100 using a fixed-tip 96-head Agilent VPrep liquid handler (Agilent Technologies, Santa Clara, Calif.) to give four intermediate dilutions (10 mM, 100 μM, 1 μM, 10 nM). In Workflow B, 10 mM compound stocks were diluted 1:10 using a Tecan Freedom Evo (Tecan Group Ltd., Switzerland), and then 1:100 using the Echo 555 and Labcyte LX to produce three intermediate dilutions across three Labcyte qualified source plates (1 mM, 10 μM, 100 nM). These intermediate dilution plates were then used by the Echo 555 to generate final assay-ready compound plates with a 12 point dose range (10, 3, 1, 0.25, 0.1, 0.03, 0.01, 0.0025, 0.001, 0.0003, 0.0001, 0.0000125 μM) in order to calculate compound IC50s, with a total DMSO concentration in the assay of 1%. For the ERK2 Mass Spectrometry assay Workflow B was used. For the A375 phospho-p90RSK cell assay, the intermediate 1:100 dilution plate described in Workflow A was used by the Echo to dispense compounds and DMSO directly into the cell plates with a 12 point dose range (30, 10, 3.125, 1.25, 0.3, 0.1, 0.03125, 0.0125, 0.003, 0.001, 0.0003125, 0.00003 μM) in order to calculate compound IC50's, with a total DMSO concentration in the assay of 0.3%.
A375 Phospho-p90RSK Cellular Assay
A375 cells were cultured in cell media composed of DMEM (Dulbecco's modified Eagle's medium), 10% (v/v) Foetal Calf Serum and 1% (v/v) L-Glutamine. After harvesting, cells were dispensed into black, 384-well Costar plates (#3712, Corning) to give 2400 cells per well in a total volume of 40 μl cell media, and were incubated overnight at 37° C., 90% relative humidity and 5% CO2 in a rotating incubator. Test compounds and reference controls were dosed directly into the cell plates using a Labcyte Echo 555 acoustic dispenser. The cell plates were then incubated for 2 hours at 37° C. before being fixed by the addition of 20 μl 12% formaldehyde in PBS/A (4% final concentration), followed by a 20 minute room temperature incubation, and then a 2× wash with 150 μl PBS/A (phosphate buffered saline containing albumin) using a BioTek ELx405 platewasher. Cells were permeabilised with 20 μl 0.1% Triton X-100 in PBS/A for 20 minutes at room temperature, and then washed 1× with 100 μl PBS/A. Primary phospho-p90RSK (Thr359) (D1E9) rabbit monoclonal antibody (#8753, Cell Signaling Technology) was diluted 1:1000 in assay buffer (0.05% (v/v) Tween, 5% (v/v) Foetal Calf Serum, in PBS/A), 20 μl added per well, and plates were incubated at 4° C. overnight. Cell plates were washed 2× with 200 μl PBS/T (phosphate buffered saline containing Tween-20), then 20 μl 1:500 dilution in assay buffer of Alexa Fluor® 647 goat anti-rabbit IgG secondary antibody (#A31573, Molecular Probes, Life Technologies), with a 1:5000 dilution of Hoechst 33342, was added per well. Following a 90 minute incubation at room temperature, plates were washed 2× with 200 μl PBS/T, and 40 μl PBS/A was added per well. Stained cell plates were covered with black lid seals, and then read on a Cellomics ArrayScan™ VTI imaging platform (Thermo Scientific), using an XF53 filter with 10× objective, with a LED light source set-up to analyse nuclear staining with Hoechst 33342 (405 nm) and secondary antibody staining of phospho-p90RSK (647 nm). Data was analysed and IC50's were calculated using Genedata Screener® software.

[2] = test system: A549 xenograft; test: Tumour growth inhibition in A549 xenograft model; format: in vivo, mice; conditions: selumetinib 25 mg/kg BiD or Example 18a 25 mg/kg QD, peroral, continuously for 3 weeks, relative to vehicle
Method: A549 is a human non small cell lung cancer line carrying an oncogenic mutation in the KRAS gene (G12S). Female nude mice (Harlan, UK) were implanted subcutaneously (s.c.) on the left flank, with 5×10^6 A549 cells (ATCC) per mouse.
Tumour growth was monitored by twice weekly calliper measurement and volumes calculated using elliptical formula (pi/6×width×width×length). Once tumours had reached a volume of ˜200-300 mm^3 animals were randomised into groups of 7-11 and were treated with a continuous combination schedule of selumetinib (ARRY-142886) 25 mg/kg BiD and Example 18a 25 mg/kg QD (four hours after first selumetinib dose), both were dosed by peroral route. Tumour volumes were measured twice weekly after dosing commenced.
Selumetinib was formulated in HPMC/Tween (0.5% Methocel [hydroxypropyl methocellulose]/0.1% Polysorbate 80), the suspension was stirred over night. Example 18a was formulated in 10% DMSO, 90% of a 40% kleptose solution (Kleptose is sourced from Roquette—Pharma [Trademarked] Hydroxypropyl betacyclodextrin—suitable for in-vivo use and formulations).
Studies were performed in the A549 xenograft model. Selumetinib was dosed twice daily (BiD) 8 hours apart and Example 18a was dosed once daily (QD) 4 hours after the first selumetinib dose. Both compounds were dosed continuously for 3 weeks. Both vehicles were dosed in the vehicle group.

[3] = target: T1, ERK2 (Homo sapiens, UniProt P28482); test: ERK2 Rapidfire Mass Spectrometry Inhibition of Catalysis Assay; format: biochemical; conditions: 1.2 nM ERK2, 16 μM Erktide, 120 μM ATP (measured Km), 15 minute pre-incubation; read-out: ERK2 Mass Spectrometry Enzyme IC50
T1 construct: made in house
T1 sequence (P28482 whole entry): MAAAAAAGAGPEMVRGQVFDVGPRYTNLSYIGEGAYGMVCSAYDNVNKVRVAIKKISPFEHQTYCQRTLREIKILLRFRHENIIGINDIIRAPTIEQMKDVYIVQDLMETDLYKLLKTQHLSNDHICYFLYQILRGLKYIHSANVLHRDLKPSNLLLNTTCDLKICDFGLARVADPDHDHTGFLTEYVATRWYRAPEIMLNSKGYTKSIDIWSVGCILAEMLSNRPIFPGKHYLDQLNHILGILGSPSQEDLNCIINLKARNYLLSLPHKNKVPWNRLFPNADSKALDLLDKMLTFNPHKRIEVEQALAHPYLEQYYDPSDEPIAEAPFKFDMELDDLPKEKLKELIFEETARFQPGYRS
Method: as §1
ERK2 Rapidfire Mass Spectrometry Inhibition of Catalysis Assay
MEK U911-activated ERK2 protein was expressed and purified in-house. Enzyme and substrate solutions were made up in assay buffer consisting of 50 mM Tris (pH 7.5), 10 mM MgCl2, 0.1 mM EGTA (ethylene glycol tetraacetic acid), 10 mM DTT (dithiothreitol) and 0.01% (v/v) CHAPS (3-[(3-Cholamidopropyl)dimethylammonio]-1-propanesulfonate). 1.2 nM ERK2 protein was prepared in assay buffer and 10 μl was dispensed into each well of a polypropylene, 384-well plate (#781201, Greiner) containing test and reference control compounds. […] The reaction was allowed to progress for 20 minutes at room temperature before being quenched by the addition of 80 al 1% (v/v) formic acid. The assay plates were then run on the RapidFire Mass Spectrometry platform (Agilent) to measure substrate (unphosphorylated Erktide) and product (phosphorylated Erktide) levels. Data was analysed and IC50's (half maximal inhibitory concentration) were calculated using Genedata Screener® software.

Row | SMILES | IC50 [1] [nM] | IC50 [3] [nM] | IC50 ([1]; Homo sapiens, A-375) [nM] | tumour growth, single agent [2]
1 | C[C@H]1Cn2cc(-c3nc(Nc4ccnn4C)ncc3Cl)nc2C(=O)N1Cc1ccnc(C(F)(F)F)n1 [Example 8, (S)-2-(5-chloro-2-((1-methyl-1H-pyrazol-5-yl)amino)pyrimidin-4-yl)-6-methyl-7-((2-(trifluoromethyl)pyrimidin-4-yl)methyl)-6,7-dihydroimidazo[1,2-a]pyrazin-8(5H)-one] |  | 1.1 | 210 | 
2 | COC[C@H]1Cn2cc(-c3nc(Nc4ccnn4C)ncc3C)nc2C(=O)N1Cc1cccc(C(F)F)n1 [Example 16, (R)-7-((6-(Difluoromethyl)pyridin-2-yl)methyl)-6-(methoxymethyl)-2-(5-methyl-2-((1-methyl-1H-pyrazol-5-yl)amino)pyrimidin-4-yl)-6,7-dihydroimidazo[1,2-a]pyrazin-8(5H)-one] |  | 1.1 | 120 | 

Now those with a lower IC50 [3], led by results:

Row | IC50 [1] [nM] | IC50 [3] [nM] | IC50 ([1]; Homo sapiens, A-375) [nM] | SMILES | tumour growth, single agent [2]
3 | 7.4 | 0.6 |  | COC[C@H]1Cn2cc(-c3nc(Nc4ccnn4C)ncc3C)nc2C(=O)N1Cc1ccc(F)c(F)c1 [Example 18a, (R)-7-(3,4-Difluorobenzyl)-6-(methoxymethyl)-2-(5-methyl-2-((1-methyl-1H-pyrazol-5-yl)amino)pyrimidin-4-yl)-6,7-dihydroimidazo[1,2-a]pyrazin-8(5H)-one Ethanesulfonic acid adduct Form 1] | reduced tumour growth relative to vehicle only control
4 |  | 0.8 | 150 | Cc1cccc(CN2C(=O)c3nc(-c4nc(Nc5ccnn5C)ncc4Cl)cn3C[C@@H]2C)n1 [Example 11, (S)-2-(5-chloro-2-((1-methyl-1H-pyrazol-5-yl)amino)pyrimidin-4-yl)-6-methyl-7-((6-methylpyridin-2-yl)methyl)-6,7-dihydroimidazo[1,2-a]pyrazin-8(5H)-one] | 
5 |  | 0.9 | 99 | Cc1cnc(Nc2ccnn2C)nc1-c1cn2c(n1)C(=O)N(Cc1cc(C(F)(F)F)ncn1)[C@@H](C)C2 [Example 32, (S)-6-Methyl-2-(5-methyl-2-((1-methyl-1H-pyrazol-5-yl)amino)pyrimidin-4-yl)-7-((6-(trifluoromethyl)pyrimidin-4-yl)methyl)-6,7-dihydroimidazo[1,2-a]pyrazin-8(5H)-one] | 
6 |  | 0.7 | 130 | Cc1cnc(Nc2ccnn2C)nc1-c1cn2c(n1)C(=O)N(Cc1cccc(C(F)F)n1)[C@@H](C)C2 [Example 25, (S)-7-((6-(Difluoromethyl)pyridin-2-yl)methyl)-6-methyl-2-(5-methyl-2-((1-methyl-1H-pyrazol-5-yl)amino)pyrimidin-4-yl)-6,7-dihydroimidazo[1,2-a]pyrazin-8(5H)-one] | 
